What all share (assay): inhibition of tumour cell growth, NCI panel, 48 h
For test [1], the system named is K-562 leukemia.
Test [2] concerns SF-295 CNS.
Test [3] deals with OVCAR-8 ovarian.
Test [4] deals with IGROV1 ovarian.
Test [5] has as its system MOLT-4 leukemia.
Test [6] has as its system SW-620 colon.
Test [7] has as its system M14 melanoma.
Test [8] concerns SR leukemia.
In test [9] the test system is HS 578T breast.
In test [10] the test system is COLO 205 colon.

The structures appear in SMILES notation.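 Values below derive from 48-hour exposures of cells grown in 96-well plates, with endpoints linearly interpolated between the two concentrations bracketing the appropriate inhibition level. GI50: concentration for 50% inhibition of growth. The concentration for full growth arrest is given as TGI.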 A value given as a limit tells only on which side of the number the result lay.

For `NC(=O)c1ncn(C2OC(CO)C(O)C2O)c1O` (stereo not given), the TGI in [1], in [2], in test [3], in test [4], in test [5] and in [6] was greater than 100 µM each time. For the same molecule, the TGI in [7] and in [8] was greater than 100 µM each time.

Turning to `COc1cnccc1Nc1nc(-c2nn(Cc3c(F)cc(OCCO)cc3F)c3ccccc23)ncc1OC`, the GI50 is 9.08 µM in test [9]; 17.7 µM in test [10]; 0.645 µM in [1]; 7.26 µM in [2]; 2.03 µM in [3]; 2.89 µM in test [4]. Moreover, the GI50 in [5] was 1.55 µM; in test [6] it was 1.99 µM; in test [7], 1.79 µM. Further, the TGI in test [9] was 26.3 µM; in [10], greater than 100 µM; in test [1], greater than 100 µM; in test [2] it was 24.9 µM; in test [3], 5.82 µM; in [4] it was 16.4 µM. The TGI in [5] was greater than 100 µM; in test [6] it was 7.4 µM; in test [7], 10 µM.

In the case of `CN1CCN(c2ccc(NC3=CC(=O)c4ncncc4C3=O)cc2)CC1`, the GI50 in test [9] is 1.74 µM; in test [10], 1.93 µM; in test [2], 0.511 µM; in test [3], 0.323 µM; in test [4], 0.231 µM; in test [5], 0.289 µM. The GI50 in [6] was 0.336 µM; in [7] it was 0.276 µM; in test [8], 0.321 µM. Also, the TGI in test [9] is 6.29 µM; in [10], 4.07 µM; in test [2] it was 1.66 µM; in test [3] it was 1.57 µM; in test [4] it was 0.542 µM; in test [6], 1.27 µM. Further, the TGI in test [7] was 0.744 µM; in [8], greater than 100 µM.

For `CC1=C[C@@H]2c3c(c(O)c(O)c4oc5cc(O)cc(O)c5c(=O)c34)[C@@H](c3cc(O)c(O)c4oc5cc(O)cc(O)c5c(=O)c34)[C@@H]2C(C)(C)C1`, the GI50 in [9] was 3.42 µM; in [10], 2.86 µM; in test [1] it was 2.34 µM; in test [2] it was 2.87 µM; in [3], 4.31 µM; in test [4] it was 4.01 µM. Moreover, the GI50 in test [5] was 3.38 µM; in [6], 3.48 µM; in [7], 2.37 µM. Moreover, the TGI was determined as 21 µM in test [9]; 11.2 µM in [10]; 80 µM in test [1]; 11.3 µM in [2]; 18.8 µM in test [3]; 22.2 µM in [4]. For the same molecule, the TGI in test [5] worked out at 19.5 µM; in test [6], 14.2 µM; in test [7] it was 12.8 µM.

`CSc1nc(SC)c2c(C)cn(COCCOC(=O)c3ccccc3)c2n1`: the TGI in test [9], in test [10], in test [2], in test [3], in [4] and in [5] was greater than 100 µM in each case. Besides, the TGI in test [6], in test [7] and in test [8] was greater than 100 µM each time.

Consider `CN(C)N=Nc1ccc(S(N)(=O)=O)cc1`, for which the TGI in test [10], in test [1], in test [2], in [3], in test [4] and in test [5] was greater than 100 µM throughout. For the same molecule, the TGI in [6], in [7] and in [8] was greater than 100 µM in each case.

As for `N#CC(/C(CCCC(=O)Nc1cccc([N+](=O)[O-])c1)=N\NC(=O)c1c(O)ccc2ccccc12)c1nc2ccccc2s1` (stereo not given), the TGI in test [10], in test [1], in test [2], in test [3], in [4] and in test [5] was greater than 100 µM each time. Further, the TGI in [6], in test [7] and in test [8] was greater than 100 µM throughout.

Regarding `COc1cc(C(=O)O[C@H](C(=O)NCCCCNC(=O)[C@@H](OC(=O)c2cc(OC)cc3c(C)cccc23)[C@]2(C)CO2)[C@]2(C)CO2)c2cccc(C)c2c1`, the GI50 in test [9] is 0.479 µM; in [10], 0.111 µM; in test [2] it was 0.122 µM; in [3], 0.0192 µM; in test [5] it was less than 0.01 µM; in [6], less than 0.0111 µM. Further, the GI50 in test [7] was 0.0769 µM. The TGI was greater than 100 µM in test [9]; 3.65 µM in test [10]; 3.05 µM in test [1]; 0.672 µM in test [2]; 0.206 µM in [3]; 0.944 µM in [4]. In addition, the TGI was found to be 0.676 µM in [5] and 0.591 µM in [7].

Turning to `O=C(CCc1ccccc1)CC1OC(=O)C(Cl)=C1Cl` (stereo not given), the TGI is 30.9 µM in test [10]; 88 µM in test [1]; 87.4 µM in [2]; 41 µM in test [3]; 40.8 µM in test [4]; greater than 100 µM in test [5]. In addition, the TGI in [6] was 25.1 µM; in test [7], 31 µM; in [8], greater than 100 µM.

As to `O=C(C(=CN1CCN(C(=O)c2ccco2)C1=S)C(=O)c1ccccc1)c1ccccc1`, the GI50 in test [10] was 20 µM; in test [1] it was 3.24 µM; in test [2], 11.1 µM; in test [3], 16.2 µM; in test [4], 5.58 µM; in test [5], 15.2 µM. Moreover, the values for the GI50 in test [6], in test [7] and in test [8] were 8.73 µM, 7 µM and 1.28 µM, respectively. Moreover, the TGI was greater than 50 µM in test [10]; greater than 50 µM in [1]; 33 µM in test [2]; 41.4 µM in test [3]; 40.9 µM in [4]; greater than 50 µM in [5]. In addition, the figures for the TGI in test [6], in test [7] and in test [8] were 20.3 µM, 13.8 µM and 6.72 µM, respectively.

Source of the values: PubChem BioAssay (NCI).
